1 molecule from article PMC10141386, “The Blockade of Mitogen-Activated Protein Kinase 14 Activation by Marine Natural Product Crassolide Triggers ICD in Tumor Cells and Stimulates Anti-Tumor Immunity” (Marine Drugs, 2023) can be followed below.

The assay has as its target MAPK14 (p38 alpha) (Homo sapiens, UniProt Q16539). Briefly: Z′-LYTE FRET kinase assay (SelectScreen, MAPK14 direct, Ser/Thr […] peptide). In kind it is biochemical.

Sequence of MAPK14 (p38 alpha) (Q16539 2-360): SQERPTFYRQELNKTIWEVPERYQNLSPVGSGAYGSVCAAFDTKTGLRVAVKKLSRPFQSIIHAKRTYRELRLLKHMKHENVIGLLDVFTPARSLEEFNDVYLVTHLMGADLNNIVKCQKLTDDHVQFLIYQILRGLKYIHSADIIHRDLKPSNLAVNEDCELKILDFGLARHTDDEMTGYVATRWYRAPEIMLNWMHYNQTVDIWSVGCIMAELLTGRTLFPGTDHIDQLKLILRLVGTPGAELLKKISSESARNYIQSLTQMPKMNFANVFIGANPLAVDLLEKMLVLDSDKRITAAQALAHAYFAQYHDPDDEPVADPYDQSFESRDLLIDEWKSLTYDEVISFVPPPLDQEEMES

Consider `C=C1C(=O)OC2C1C(OC(C)=O)C/C(C)=C/CC(OC(C)=O)/C(C)=C/CC(OC(C)=O)C1(C)OC21` (stereo not shown) [crassolide], for which the IC50 was roughly 5.15 µM.
